Counter-ions that a name gives are not always drawn.

Usually IC50 stands for the concentration that gives 50% inhibition. Lower therefore signals greater potency in that assay.

For the experiment, the target named is T1, DP receptor (Homo sapiens, UniProt Q13258).
T1 construct: the human cell line LS174T, which expresses the endogenous DP receptor; endogenous in cells; host or cells: LS174T human cell line
T1 sequence (Q13258 1-359): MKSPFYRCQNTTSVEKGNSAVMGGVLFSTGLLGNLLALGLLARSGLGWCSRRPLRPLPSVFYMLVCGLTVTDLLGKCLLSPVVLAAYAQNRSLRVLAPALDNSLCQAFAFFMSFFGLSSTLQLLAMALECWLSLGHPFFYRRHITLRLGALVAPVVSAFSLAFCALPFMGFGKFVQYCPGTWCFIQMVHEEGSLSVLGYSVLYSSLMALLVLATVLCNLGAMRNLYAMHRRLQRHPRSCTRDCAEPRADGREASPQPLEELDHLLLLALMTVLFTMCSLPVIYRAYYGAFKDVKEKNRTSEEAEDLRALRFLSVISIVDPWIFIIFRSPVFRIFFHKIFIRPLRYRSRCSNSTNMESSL
The experiment can be described thus: SPA cAMP assay in human LS174 T cells (human DP functional assay). The class given is cell-based. To be noted: inhibition of PGD2 (15 nM final) stimulated cAMP, LS174T cells expressing endogenous DP receptor. As for the experimental part: The inhibitory effects of the compounds according to the invention are assessed in a human DP functional assay. A cAMP assay is employed using the human cell line LS174T, which expresses the endogenous DP receptor.
Protocol for SPA cAMP Assay in Human LS174 T Cells
• 1) Add equal volumes of tracer, antiserum and SPA anti-rabbit reagent to a bottle, ensuring that a sufficient volume of this mixture is prepared for the desired number of wells (150 μL/well). • 2) Mix thoroughly. • 3) This immunoreagent solution should be freshly prepared before each assay and not re-used.
Add 50 μL of […] IBMX into 100 mL PBS to make a final concentration of 100 μM and sonicate at 30° C. for 20 minutes.
Before each assay, it is freshly prepared. Add 3 μL of 10 mM stock solution to 20 mL DMSO, mix it thoroughly, and transfer 10 mL to 40 mL PBS.
Compound dilution is carried out in Biomex 2000 (Beckman) using Method 1_cAMP DP 11 points.
5 μL of each compound from the 10 mM stock compound plates is transferred to the wells of a 96-well plate respectively as below.
Fill the plate with 45 μL of DMSO except column 7 is filled with 28 μL DMSO. Pipette column 1 thoroughly, and transfer 12 μL into column 7 parallel. Perform 1:10 serial dilution from column 1 to column 6 and from column 7 to column 11 by transfer 5 μL to 45 μL DMSO to make following concentrations:
Fill a new 96-well plate with 247.5 μL of compound dilution buffer. Transfer 2.5 μL of serially diluted compounds from above plate to the new plate (1:100 dilution) as following:
Cell Growth • 1. […] Remove growth medium from cells. Cells in T165 flask are washed twice with 4 mL Trypsin followed by incubation at 37° C. and 5% CO2 for 3 minutes. • 4. Add 10 mL of medium and pipette thoroughly to separate the cells and count the cells. • 5. […] Assay Procedure Day 1 • Seed 45,000 cells/well in 200 μL medium in 96-well plates. Incubate the cell plate at 37° C., 5% CO2 and 95% humidity overnight. Day 2 • 1. Perform compound dilution. • 2. Prepare assay buffer, lysis buffer 1 & 2, PGD2 and standard. • 3. Aspirate media from the cells and add 100 μL of compound solution using Zymark Sciclone-ALH/FD protocol cAMP DP. • 4. Incubate the cells at 37° C., 5% CO2 and 95% humidity for 15 minutes. • 5. […] Aspirate media from the cells and add 50 μL of lysis buffer 1 using Zymark protocol cAMP DP lysis, and incubate at room temperature with shaking for 30 minutes. • 7. Add 150 μL immunoreagent to all wells (a total volume of 200 μL/well). • 8. Seal the plates and shake for 2 minutes, put into the chamber of the Wallac microtitre plate μ scintillation counter for 16 hours. […] Data Processing Set up standard curve of cAMP versus CPM.
The cAMP concentrations (pmol/mL) of unknown samples are calculated from a standard curve of cAMP versus CPM. % inhibition is calculated using the following formula: […]
(Cyclic AMP is a second messenger, typically raised through Gs and lowered through Gi signalling.)
As for `COc1ccc(C(C)(C)CNc2cc(-c3cccc(OC)c3)nc(OC)n2)cc1` [Example 29, [2-Methoxy-6-(3-methoxy-phenyl)-pyrimidin-4-yl]-[2-(4-methoxy-phenyl)-2-methyl-propyl]-amine], the concentration for half-maximal inhibition (IC50) was 792 nM.

Consider `COc1nc(NCCc2c(F)cccc2Cl)cc(-c2ccc(=O)n(Cc3n[nH]c(=O)o3)c2)n1` [Example 33, 5-{6-[2-(2-Chloro-6-fluoro-phenyl)-ethylamino]-2-methoxy-pyrimidin-4-yl}-1-(5-oxo-4,5-dihydro-[1,3,4]oxadiazol-2-ylmethyl)-1H-pyridin-2-one], for which the 50% inhibitory concentration (IC50) stood at 1.2 nM. This IC50 lies about 660-fold lower than the previous one.

In the case of `COc1nc(NCCc2c(F)cccc2Cl)cc(-c2cccc(Cc3noc(=O)[nH]3)c2)n1` [Example 34(b), 3-(3-{6-[2-(2-Chloro-6-fluoro-phenyl)-ethylamino]-2-methoxy-pyrimidin-4-yl}-benzyl)-4H-[1,2,4]oxadiazol-5-one hydrochloride], 1 nM corresponded to half-maximal inhibition (IC50).

In turn, `COc1nc(NCCc2c(F)cccc2Cl)cc(-c2cccc(OCc3noc(=O)[nH]3)c2)n1` [Example 34(c), 3-(3-{6-[2-(2-Chloro-6-fluoro-phenyl)-ethylamino]-2-methoxy-pyrimidin-4-yl}-phenoxymethyl)-4H-[1,2,4]oxadiazol-5-one hydrochloride] had an IC50 of 0.3 nM.

On to `COc1nc(NCCc2ccc(OC)c(OC)c2)cc(-c2ccco2)n1` [Example 35(d), [2-(3,4-Dimethoxy-phenyl)-ethyl]-(6-furan-2-yl-2-methoxy-pyrimidin-4-yl)-amine], for which the midpoint of inhibition, the IC50, lay at 256 nM.

As to `COc1nc(NCCc2ccc(OC)c(OC)c2)cc(-c2ccc(-c3ccccc3)cc2)n1` [Example 35(e), (6-Biphenyl-4-yl-2-methoxy-pyrimidin-4-yl)-[2-(3,4-dimethoxy-phenyl)-ethyl]-amine], it took 369 nM to reach half-maximal inhibition (IC50).

In turn, `COc1ccc(CCNc2cc(-c3cccc(C(C)=O)c3)nc(OC)n2)cc1` [Example 35(h), 1-(3-{2-Methoxy-6-[2-(4-methoxy-phenyl)-ethylamino]-pyrimidin-4-yl}-phenyl)-ethanone] had an IC50 of 5 nM.

`COc1ccc(CCNc2cc(-c3ccc(C(C)=O)s3)nc(OC)n2)cc1` [Example 35(m), 1-(5-{2-Methoxy-6-[2-(4-methoxy-phenyl)-ethylamino]-pyrimidin-4-yl}-thiophen-2-yl)-ethanone] came in with an IC50 of 3.8 nM.

In turn, `COc1nc(NCCc2ccc(Cl)cc2)cc(-c2cccc(C(=O)O)c2)n1` [Example 35(n), 3-{6-[2-(4-chlorophenyl)-ethylamino]-2-methoxy-pyrimidin-4-yl}-benzoic acid hydrochloride] yielded an IC50 of 0.6 nM.

`COc1ccc(CCNc2cc(-c3ccc(OC)nc3)nc(OC)n2)cc1` [Example 35(o), [2-Methoxy-6-(6-methoxy-pyridin-3-yl)-pyrimidin-4-yl]-[12-(4-methoxy-phenyl)-ethyl]-amine]: the IC50 worked out at 1.7 nM.

Molecule `COc1ccc(CCNc2cc(-c3ccncc3)nc(OC)n2)cc1` [Example 35(q), [2-(4-Methoxy-phenyl)-ethyl]-(2-methoxy-6-pyridin-4-yl-pyrimidin-4-yl)-amine] came in with an IC50 of 8 nM.

Take `COc1ccc(CCNc2cc(-c3ccccc3O)nc(OC)n2)cc1` [Example 35(r), 2-{2-Methoxy-6-[2-(4-methoxy-phenyl)-ethylamino]-pyrimidin-4-yl}-phenol]: the half-inhibitory concentration (IC50) is 17 nM.

On to `COc1ccc(CCNc2cc(-c3cccc(CC#N)c3)nc(OC)n2)cc1` [Example 35(s), (3-{2-Methoxy-6-[2-(4-methoxy-phenyl)-ethylamino]-pyrimidin-4-yl}-phenyl)-acetonitrile], for which the half-maximal inhibitory concentration (IC50) was 6 nM. Compared with the last molecule, the IC50 is about 2.8-fold lower.

For the molecule `COc1ccc(CCNc2cc(-c3cccc(C#N)c3)nc(OC)n2)cc1` [Example 35(t), 3-{2-Methoxy-6-[2-(4-methoxy-phenyl)-ethylamino]-pyrimidin-4-yl}-benzonitrile], the midpoint of inhibition, the IC50, lay at 0.9 nM. This IC50 lies about 6.7-fold lower than the previous one.

Consider `COc1nc(NCCc2c(F)cccc2Cl)cc(-c2cccc(C=O)c2)n1` [Example 35(v), 3-{6-[2-(2-chloro-6-fluoro-phenyl)-ethylamino]-2-methoxy-pyrimidin-4-yl}-benzaldehyde], for which the IC50 was 3.6 nM.

As for `COc1nc(NCCc2ccc(Cl)cc2Cl)cc(-c2cccc(C(=O)O)c2)n1` [Example 35(w), 3-{6-[2-(2,4-dichloro-phenyl)-ethylamino]-2-methoxy-pyrimidin-4-yl}-benzoic acid], the IC50 worked out at 0.3 nM.

With `COc1ccc(CCNc2cc(-c3cccnc3)nc(OC)n2)cc1` [Example 35(x), [2-methoxy-(6-pyridin-3-yl)-pyrimidin-4-yl]-[2-(4-methoxy-phenyl)-ethyl]-amine], inhibition was half-maximal at 10 nM (IC50).

Take `CCOC(=O)c1cc(-c2cc(NCCc3ccc(OC)cc3)nc(OC)n2)ccc1Cl` [Example 35(z), 2-Chloro-5-{2-methoxy-6-[2-(4-methoxy-phenyl)-ethylamino]-pyrimidin-4-yl}-benzoic acid ethyl ester]: the IC50 came to 32 nM. Against the preceding molecule, the IC50 is about 3.2-fold higher.

In turn, `COc1ccc(CCNc2cc(-c3cccc(-c4nc(C)no4)c3)nc(OC)n2)cc1` [Example 36, {2-Methoxy-6-[3-(3-methyl-[1,2,4]oxadiazol-5-yl)-phenyl]-pyrimidin-4-yl}-[2-(4-methoxy-phenyl)-ethyl]-amine] yielded an IC50 of 2.6 nM.

Regarding `COc1ccc(CCNc2cc(-c3cccc(-c4nnc(C)[nH]4)c3)nc(OC)n2)cc1` [Example 37, {2-Methoxy-6-[3-(5-methyl-2H-[1,2,4]triazol-3-yl)-phenyl]-pyrimidin-4-yl}-[2-(4-methoxy-phenyl)-ethyl]-amine], the IC50 worked out at 3.7 nM. The IC50 values of the last two molecules are within 1.5-fold of each other.

Consider `COc1ccc(CCNc2cc(-c3cccc(-c4cc(C)no4)c3)nc(OC)n2)cc1` [Example 38, {2-Methoxy-6-[3-(3-methyl-isoxazol-5-yl)-phenyl]-pyrimidin-4-yl}-[2-(4-methoxy-phenyl)-ethyl]-amine], for which the IC50 stood at 6 nM.

`COc1nc(NCCc2ccc(OC)c(F)c2)cc(-c2cccc(-c3nn[nH]n3)c2)n1` [Example 40, [2-(3-Fluoro-4-methoxy-phenyl)-ethyl]-{2-methoxy-6-[3-(2H-tetrazol-5-yl)-phenyl]-pyrimidin-4-yl}-amine] showed an IC50 of 0.4 nM.

With `CCNC(=O)Nc1cccc(-c2cc(NCCc3ccc(OC)cc3)nc(OC)n2)c1` [Example 41, 1-Ethyl-3-(3-{2-methoxy-6-[2-(4-methoxy-phenyl)-ethylamino]-pyrimidin-4-yl}-phenyl)-urea], 7.6 nM corresponded to half-maximal inhibition (IC50).

In turn, `COc1nc(NC(C)Cc2ccc(Cl)cc2)cc(-c2ccc(OC)c(OC)c2)n1` (stereo not drawn) [Example 43(a), [2-(4-Chloro-phenyl)-1-methyl-ethyl]-[6-(3,4-dimethoxy-phenyl)-2-methoxy-pyrimidin-4-yl]-amine] had an IC50 of 1730 nM.

As to `COc1cccc(-c2cc(NCCc3ccc([N+](=O)[O-])cc3)nc(OC)n2)c1` [Example 43(b), [2-Methoxy-6-(3-methoxy-phenyl)-pyrimidin-4-yl]-[2-(4-nitro-phenyl)-ethyl]-amine], the IC50 was 0.9 nM.

As for `COc1cccc(-c2cc(NCCc3cccs3)nc(OC)n2)c1` [Example 43(e), [2-Methoxy-6-(3-methoxy-phenyl)-pyrimidin-4-yl]-(2-thiophen-2-yl-ethyl)-amine hydrochloride], half-maximal inhibition (IC50) was put at 9.7 nM. This IC50 is about 11-fold higher than that of the molecule before.

For the molecule `COc1cccc(-c2cc(NCCc3c[nH]c4cc(OC)ccc34)nc(OC)n2)c1` [Example 43(g), [2-(6-Methoxy-1H-indol-3-yl)-ethyl]-[2-methoxy-6-(3-methoxy-phenyl)-pyrimidin-4-yl]-amine hydrochloride], 104 nM corresponded to half-maximal inhibition (IC50).

The values above are taken from patent US7517889B2, “2,6-substituted-4-monosubstitutedamino-pyrimidine as prostaglandin D2 receptor antagonists” (Aventis Pharmaceuticals, Inc., priority 2004, dated 2009).
